Drawing on ChEMBL document CHEMBL5625279, “Synthesis and antiproliferative activity of a tetrahydrofuran analog of FR901464” (2024), this text covers GI50 for four molecules.

Holding throughout (assay type): functional
For one assay, the system named is A549. As to the kind of experiment: Antiproliferative activity against human A549 cells assessed as growth inhibition incubated for 3 days. The settings on record: A549, 72 h, time 3 day.
The next assay deals with LS174T. Nature of the assay: Antiproliferative activity against human LS174T cells assessed as growth inhibition incubated for 3 days. The settings on record: 72 h, time 3 day.
The subject of a further assay is HCT-116. Nature of the assay: Antiproliferative activity against human HCT-116 cells assessed as growth inhibition incubated for 3 days. As to conditions: HCT-116, 72 h, time 3 day.

What is called GI50 is the concentration that inhibits growth by half. In the case of `COCO[C@@H](C)/C=C\C(=O)N[C@@H]1C[C@H](C)[C@H](C/C=C(C)/C=C/[C@@H](O)[C@H]2OC(C)(C)C[C@@]23CO3)O[C@@H]1C`, the GI50 with A549 is 8700 nM; in the assay with LS174T, 5500 nM; in the assay on HCT-116, 3400 nM.
Consider `COCO[C@@H](C)/C=C\C(=O)N[C@@H]1C[C@H](C)[C@H](C/C=C(C)/C=C/[C@H]2OC(C)(C)C[C@@]3(CO3)[C@@H]2O)O[C@@H]1C`, for which the concentration for 50% growth inhibition (GI50) worked out at 3.9 nM in the assay on A549, 8.4 nM in the assay on LS174T and 3.1 nM in the assay with HCT-116.
For `COc1cccc2c1C(=O)c1c(O)c3c(c(O)c1C2=O)C[C@@](O)(C(=O)CO)C[C@@H]3O[C@H]1C[C@H](N)[C@H](O)[C@H](C)O1` [DOXORUBICIN], the GI50 was found to be 608 nM in the assay on A549, 248 nM in the assay with LS174T and 77 nM with HCT-116.
Regarding `CC(=O)O[C@@H](C)/C=C\C(=O)N[C@@H]1C[C@H](C)[C@H](C/C=C(C)/C=C/[C@H]2OC(C)(C)C[C@@]3(CO3)[C@@H]2O)O[C@@H]1C`, the GI50 in the assay with A549 turned out to be 7.4 nM; with LS174T, 5.7 nM; in the assay with HCT-116, 1.1 nM.
